Where a name gives a salt, the structure may show the parent alone. Read-outs that look alike come from different tables or passages of the source.
Legend:
Target C [1] = test: RT-qPCR splicing assay panel, Target C canonical junction (CJ) mRNA; assay type: cell-based, human; conditions: Homo sapiens; Table 5 panel; canonical junction qPCR; compound concentration having 50% response in CJ decrease; read-out: Target C IC50 (decrease in CJ mRNA levels)
Outline: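 Canonical-junction transcript levels in compound-treated A673 or K562 cells (24 h, up to 10 uM final) were determined from lysates by RT-qPCR with housekeeping-gene normalization.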

HTT = test: HiBiT protein abundance assay, HTT HiBiT K562 cell line; assay type: cell-based, human; conditions: 24 hours, top dose 10 μM
Outline: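 K562 knock-in lines with endogenous HiBiT-tagged target, 10,000 cells/well in IMDM + FBS, treated 24 h at 37° C with 10-point 3-fold dilutions (top 10 μM final; DMSO ≤0.25%). Lytic Nano-Glo HiBiT luminescence normalized to untagged K562 baseline and DMSO controls; IC50 = concentration giving 50% abundance via four-parameter fit.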

[2] = tested on: K562 (human chronic myelogenous leukemia) cells; test: Cell Titer Glo 2.0 cell viability assay; assay type: cell-based; conditions: Homo sapiens, K562, 72 h, K562 cells, 72 hours, Cell Titer Glo 2.0; read-out: K562 GI50
Target C [3] = test: HiBiT protein abundance assay, Target C (Promega Nano-Glo HiBiT Lytic Detection System, knock-in K562 cell line); assay type: cell-based, human; conditions: Homo sapiens, K562, 24 h, HiBiT K562 cell line, 24 hours, top dose 10 μM; read-out: Effect on protein abundance, Target C (IC50 category)
Outline: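 Knock-in K562 cells carrying HiBiT-tagged Target C, 10,000 per well, treated 24 h at 37 °C with 10-point threefold dilutions (top 10 μM final, ≤0.25% DMSO). Lytic HiBiT luminescence read; response normalised to unmodified K562 and DMSO controls, four-parameter fit interpolated at 50% for IC50.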

[4] = HiBiT K562 cell line, read-out: Effect on protein abundance, HTT (IC50 category)
[5] = HiBiT lytic detection, modified K562 cells, read-out: Effect on protein abundance, HTT (IC50)

Row | Structure (SMILES) | IC50 (Target C [1]) [µM] | IC50 (HTT; [4]) [µM] | GI50 [2] [µM] | IC50 (Target C [3]) [µM] | IC50 (HTT; [5]) [µM]
1 | Cc1cn2cc(-c3cc4ncn(C5CCNCC5)c(=O)c4cc3F)cc(F)c2n1 [Compound 586, 6-fluoro-7-{8-fluoro-2-methylimidazo[1,2-a]pyridin-6-yl}-3-(piperidin-4-yl)quinazolin-4-one] | 1 to 10 | 0.1 to 1 | 0.1 to 1 | 1 to 10 | 
2 | CCOC(=O)c1cc(-c2ccc3c(=O)n(C4CCNCC4)ccc3c2)nn2cc(C)nc12 [Compound 529, ethyl 2-methyl-6-[1-oxo-2-(4-piperidyl)-6-isoquinolyl]imidazo[1,2-b]pyridazine-8-carboxylate] | 1 to 10 | 0.1 to 1 | 1 to 10 | 0.1 to 1 | 
3 | Cc1cn2cc(-c3cc(F)c4c(=O)n([C@@H]5CNC[C@@H]5C)ccc4c3)cc(F)c2n1 [Compound 653, 8-fluoro-6-(8-fluoro-2-methyl-imidazo[1,2-a]pyridin-6-yl)-2-[(3S,4S)-4-methylpyrrolidin-3-yl]isoquinolin-1-one] | > 10 | > 10 | > 10 | > 10 | 
4 | Cc1cc(-c2ccc3c(=O)n(C4CC(C)(C)NC(C)(C)C4)cnc3n2)cc2cn(C)nc12 [Compound 179] | > 10 | > 10 | > 10 | > 10 | 
5 | Cc1cn2nc(-c3ccc4c(=O)n(C5CCNCC5)ccc4c3)cc(Cc3nnn[nH]3)c2n1 [Compound 536, 6-[2-methyl-8-(1H-tetrazol-5-ylmethyl)imidazo[1,2-b]pyridazin-6-yl]-2-(4-piperidyl) isoquinolin-1-one] | > 10 | > 10 | > 10 | > 10 | 
6 | Cn1cc2cc(-c3ncc4c(=O)n(C5CCNCC5)ccc4n3)c(O)c(F)c2n1 [Compound 1123] | 0.1 to 1 | < 0.1 | < 0.1 | < 0.1 | 
7 | CCc1cn(C2CCNCC2)c(=O)c2c(F)cc(-c3cc(F)c4nc(C)cn4c3)cc12 [Compound 558, 4-ethyl-8-fluoro-6-{8-fluoro-2-methylimidazo[1,2-a]pyridin-6-yl}-2-(piperidin-4-yl)isoquinolin-1-one] | 1 to 10 | 0.1 to 1 | 0.1 to 1 | 1 to 10 | 
8 | Cc1cn2cc(-c3ccc4c(=O)n(C5CCNCC5)ccc4c3)cc(C#N)c2n1 [Compound 560, 2-methyl-6-[1-oxo-2-(piperidin-4-yl)isoquinolin-6-yl]imidazo[1,2-a]pyridine-8-carbonitrile] | 1 to 10 | 0.1 to 1 | 0.1 to 1 | 0.1 to 1 | 
9 | COC(=O)c1cc(-c2ccc3c(=O)n(C4CCNCC4)ccc3c2)nn2cc(C)nc12 [Compound 517, methyl 2-methyl-6-[1-oxo-2-(4-piperidyl)-6-isoquinolyl]imidazo[1,2-b]pyridazine-8-carboxylate] | 1 to 10 | 1 to 10 | 1 to 10 | 1 to 10 | 
10 | Cc1cn2nc(-c3ccc4c(=O)n(C5CCNCC5)ccc4c3)cc(CO)c2n1 [Compound 525, 6-[8-(hydroxymethyl)-2-methyl-imidazo[1,2-b]pyridazin-6-yl]-2-(4-piperidyl) isoquinolin-1-one] | 0.1 to 1 | < 0.1 | 0.1 to 1 | 0.1 to 1 | 
11 | CN1CCN(c2ccc3c(=O)n(-c4ccc5cn(C)nc5c4)cnc3c2)CC1 [Compound 178] | > 10 | > 10 | > 10 | > 10 | 
12 | Cc1cn2nc(-c3cc4ncn(C5CCNCC5)c(=O)c4cc3F)cc(C)c2n1 [Compound 585, 7-{2,8-dimethylimidazo[1,2-b]pyridazin-6-yl}-6-fluoro-3-(piperidin-4-yl)quinazolin-4-one] | 1 to 10 | 1 to 10 | 1 to 10 | 1 to 10 | 
13 | Cc1cn2nc(-c3ccc4c(=O)n(C5CCNCC5)ccc4c3)cc(Oc3cccc(F)c3)c2n1 [Compound 545, 6-[8-(3-fluorophenoxy)-2-methyl-imidazo[1,2-b]pyridazin-6-yl]-2-(4-piperidyl)isoquinolin-1-one; hydrochloride] | < 0.1 | < 0.1 | < 0.1 | < 0.1 | 
14 | Cc1cn2cc(-c3cc(O)c4c(=O)n(C5CCNC6(CC6)C5)ncc4c3)cc(Cl)c2n1 (stereo not drawn) [Compound 557] | 1 to 10 | < 0.1 | 0.1 to 1 | 0.1 to 1 | 
15 | Cc1cn2nc(-c3ccc4c(=O)n(C5CCN(CCF)CC5)ncc4c3)cc(C)c2n1 [Compound 515] | 1 to 10 | 0.1 to 1 | 1 to 10 | 1 to 10 | 
16 | CN1CCC(c2ccc3c(=O)n(-c4ccc5nn(C)cc5c4)cnc3c2)CC1 [Compound 177] | 1 to 10 | > 10 | > 10 | > 10 | 
17 | Cc1cn2nc(-c3ccn4c(=O)c(C5CCNCC5)ccc4c3)cc(C)c2n1 [Compound 1181] | < 0.1 |  | < 0.1 |  | < 0.1
18 | CNC1CCN(c2ccc3cc(-c4cc(C)c5nc(C)cn5n4)ccn3c2=O)C1 (stereo not drawn) [Compound 1158] | 1 to 10 |  | 0.1 to 1 |  | 0.1 to 1
19 | Cc1cn2nc(-c3ccn4c(=O)c(C5=CCNCC5)ncc4c3)cc(C)c2n1 [Compound 1182] | 0.1 to 1 |  | 0.1 to 1 |  | 0.1 to 1

Next, values leading:

Row | IC50 (Target C [1]) [µM] | IC50 (HTT; [4]) [µM] | GI50 [2] [µM] | IC50 (Target C [3]) [µM] | IC50 (HTT; [5]) [µM] | Structure (SMILES)
20 | 0.1 to 1 | 0.1 to 1 | 0.1 to 1 | 0.1 to 1 |  | Cc1cn2nc(-c3ccc4c(=O)n(C5CCNCC5)ccc4c3)cc(-n3ccc(=O)cc3)c2n1 [Compound 551, 6-[2-methyl-8-(4-oxo-1-pyridyl)imidazo[1,2-b]pyridazin-6-yl]-2-(4-piperidyl)isoquinolin-1-one]
21 | > 10 | 1 to 10 | 1 to 10 | > 10 |  | Cc1cn2nc(-c3cc(N)c4c(=O)n([C@H]5CCNC5)ccc4c3)cc(C)c2n1 [Compound 645, 8-amino-6-(2,8-dimethylimidazo[1,2-b]pyridazin-6-yl)-2-[(3S)-pyrrolidin-3-yl]isoquinolin-1-one]
22 | 0.1 to 1 | 0.1 to 1 | 0.1 to 1 | 0.1 to 1 |  | Cc1cn2cc(-c3cc(O)c4c(=O)n(C5CCNCC5)cnc4c3)cc(F)c2n1 [Compound 587, 7-{8-fluoro-2-methylimidazo[1,2-a]pyridin-6-yl}-5-hydroxy-3-(piperidin-4-yl)quinazolin-4-one]
23 | 1 to 10 | 1 to 10 | 0.1 to 1 | 1 to 10 |  | Cc1cn2nc(-c3cc4ccn([C@@H]5CCNC5)c(=O)c4cc3O)cc(C)c2n1 [Compound 640, 6-(2,8-dimethylimidazo[1,2-b]pyridazin-6-yl)-7-hydroxy-2-[(3R)-pyrrolidin-3-yl]isoquinolin-1-one]
24 | > 10 | > 10 | 1 to 10 | > 10 |  | Cc1cn2nc(-c3cc(N)c4c(=O)n([C@@H]5CCNC5)ccc4c3)cc(C)c2n1 [Compound 646, 8-amino-6-(2,8-dimethylimidazo[1,2-b]pyridazin-6-yl)-2-[(3R)-pyrrolidin-3-yl]isoquinolin-1-one]
25 | 0.1 to 1 | < 0.1 | 0.1 to 1 | 0.1 to 1 |  | Cc1nc2c(C)cc(-c3cc(F)c4c(=O)n(C5CCNC6(CC6)C5)ncc4c3)cc2o1 (stereo not drawn) [Compound 555]
26 | < 0.1 | < 0.1 | < 0.1 | < 0.1 |  | Cc1cn2nc(-c3ccc4c(=O)n(C5CCNCC5)ccc4c3)cc(Oc3cccnc3)c2n1 [Compound 550, 6-[2-methyl-8-(3-pyridyloxy)imidazo[1,2-b]pyridazin-6-yl]-2-(4-piperidyl)isoquinolin-1-one]
27 | 0.1 to 1 | < 0.1 | 0.1 to 1 | 0.1 to 1 |  | Cc1cn2nc(-c3cc(F)c4c(=O)n(C5CCN(CCF)CC5)ncc4c3)cc(C)c2n1 [Compound 538]
28 | 1 to 10 | 1 to 10 | 1 to 10 | 1 to 10 |  | Cc1cn2nc(-c3ccc4c(=O)n(C5CCNCC5)ccc4c3)cc(C(=O)O)c2n1 [Compound 516, 2-methyl-6-[1-oxo-2-(4-piperidyl)-6-isoquinolyl]imidazo[1,2-b]pyridazine-8-carboxylic acid]
29 | 1 to 10 | 0.1 to 1 | 0.1 to 1 | 0.1 to 1 |  | Cc1cn2nc(-c3ccc4c(=O)n(C5CCNCC5)ccc4c3)cc(CCO)c2n1 [Compound 533, 6-[8-(2-hydroxyethyl)-2-methyl-imidazo[1,2-b]pyridazin-6-yl]-2-(4-piperidyl)isoquinolin-1-one]
30 | 1 to 10 | 0.1 to 1 | 0.1 to 1 | 0.1 to 1 |  | Cc1cn2nc(-c3cc4ccn([C@H]5CCNC5)c(=O)c4cc3O)cc(C)c2n1 [Compound 641, 6-(2,8-dimethylimidazo[1,2-b]pyridazin-6-yl)-7-hydroxy-2-[(3S)-pyrrolidin-3-yl]isoquinolin-1-one]

— patent publication US20250332173A1, “COMPOUNDS AND METHODS FOR MODULATING NUCLEIC ACID SPLICING” (REMIX THERAPEUTICS INC., priority 2021, published 2025)
